Results published in patent US20230381176A1, “A PHARMACEUTICAL COMPOSITION AND USE THEREOF FOR TREATMENT OF CANCER” (Ascentage Pharma (Suzhou) Co., Ltd., priority 2020, published 2023).

Key:
[1] = test system: PTK2 high NSCLC PDX LU-01-0604; assay: s.c. PTK2 high NSCLC PDX model LU-01-0604, Compound 5 and carboplatin; format: in vivo, mouse
Protocol: (§1) A subcutaneous xenograft tumor model of human tumor immunodeficient mice was established by cell inoculation: tumor cells in logarithmic growth phase were collected, counted, resuspended in 1×PBS, and the cell suspension concentration was adjusted to 2.5-5 ×10^7/mL. The tumor cells were inoculated subcutaneously in the right side of immunodeficient mice with a 1 mL syringe ([…]), 5-10×10^6/0.2 mL/mouse. All animal experiments were strictly in accordance with the specifications for the use and management of experimental animals in GenePharma Co., Ltd. and Suzhou Ascentage Pharma Co., Ltd. The calculation of relevant parameters refers to the Chinese NMPA “Guidelines for Non-Clinical Research Techniques of Cytotoxic Anti-tumor Drugs”.
(§2) Animal body weight and tumor size were measured twice weekly during the experiment. The state of the animal and the presence or absence of death were observed every day. The growth of tumor and the effects of treatment on normal behavior of animals were monitored routinely, specifically involving experimental animal activity, feeding and drinking, weight gain or loss, eyes, clothing hair and other abnormalities. The deaths and clinical symptoms observed during the experiment were recorded in the raw data. All operations for administration and measurement of mouse body weight and tumor volume were performed in a clean bench. According to the requirements of the experimental protocol, after the end of the last administration, plasma and tumor tissues were collected, weighed and photographed. The plasma and tumor samples were frozen at −80° C. for ready-to-use.
(§3) Tumor volume (TV) is calculated as: TV=a×b^2/2, wherein a and b represent the length and width of the tumor to be measured, respectively.
(§4) The relative tumor volume (RTV) is calculated as: RTV=Vt/V1, wherein V1 is the tumor volume at the start of grouping and administration, and Vt is the tumor volume measured on the t day after administration.
(§5) The evaluation index of anti-tumor activity is the relative tumor proliferation rate T/C (%), and the calculation formula thereof is: relative tumor proliferation rate T/C (%)=(TRTV/CRTV)×100%, TRTV is the RTV of treatment group, CRTV is the RTV of solvent control group.
(§6) Change of body weight (%)=(measured body weight−body weight at the start of grouping)/body weight at the start of grouping×100%.
(§7) A dose of drug is considered to be severely toxic if the body weight of mouse is reduced by more than 20% or the number of drug-related deaths exceeds 20%.
(§8) According to the description by Clarke R., Issues in experimental design and endpoint analysis in the study of experimental cytotoxic agents in vivo in breast cancer and other models [J]. Breast Cancer Research & Treatment, 1997, 46(2-3): 255-278, synergy analysis was evaluated using the following formula: synergy factor=((A/C)×(B/C))/(AB/C); A=RTV value of drug A alone group; B=RTV value of drug B alone group; C=RTV value of the solvent control group, and AB=RTV value of the A and B combination group.
Use of mRECIST (Gao et al., 2015) measured tumor responses included stable disease (SD), partial tumor regression (PR), and complete regression (CR), determined by comparing tumor volume change at day t to its baseline: tumor volume change (%)=(Vt−V1)/V1. The BestResponse was the minimum value of tumor volume change (%) for t≥10. For each time t, the average of tumor volume changes from t=1 to t was also calculated. BestAvgResponse was defined as the minimum value of this average for t≥10. The criteria for response (mRECIST) were adapted from RECIST criteria (Gao et al., 2015; Therasse et al., 2000) and defined as follows: mCR, BestResponse<−95% and BestAvg Response<−40%; mPR, BestResponse<−50% and BestAvgResponse<−20%; mSD, BestResponse<35% and BestAvgResponse<30%; mPD, not otherwise categorized. SD, PR, and CR were considered responders and used to calculate response rate (%). […] Body weight of animals were monitored simultaneously. […]

ovarian PA-1 xenograft = assay: s.c. ovarian PA-1 xenograft tumor model, Compound 5 and carboplatin; format: in vivo, mouse; settings: Compound 5 100 mg/kg orally once per day 21 days, carboplatin 50 mg/kg i.p. once on Day 1
Protocol: as §1, §2, §3, §4, §5, §6, §7, §8
Use of mRECIST (Gao et al., 2015) measured tumor responses included stable disease (SD), partial tumor regression (PR), and complete regression (CR), determined by comparing tumor volume change at day t to its baseline: tumor volume change (%)=(Vt−V1)/V1. The BestResponse was the minimum value of tumor volume change (%) for t≥10. For each time t, the average of tumor volume changes from t=1 to t was also calculated. […] Body weight of animals were monitored simultaneously. […]

[2] = test system: PTK2 high ovarian PDX OV2423; assay: PTK2 high ovarian PDX model OV2423, Compound 5 and carboplatin and/or paclitaxel; format: in vivo, mouse
Protocol: as §1, §2, §3, §4, §6, §7, §8
(§9) Use of mRECIST (Gao et al., 2015) measured tumor responses included stable disease (SD), partial tumor regression (PR), and complete regression (CR), determined by comparing tumor volume change at day t to its baseline: tumor volume change (%)=(Vt−V1)/V1. The BestResponse was the minimum value of tumor volume change (%) for t≥10. For each time t, the average of tumor volume changes from t=1 to t was also calculated. BestAvgResponse was defined as the minimum value of this average for t≥10. The criteria for response (mRECIST) were adapted from RECIST criteria (Gao et al., 2015; Therasse et al., 2000) and defined as follows: mCR, BestResponse<−95% and BestAvg Response<−40%; mPR, BestResponse<−50% and BestAvgResponse<−20%; mSD, BestResponse<35% and BestAvgResponse<30%; mPD, not otherwise categorized. SD, PR, and CR were considered responders and used to calculate response rate (%). […] Body weight of animals were monitored simultaneously. The change in body weight was calculated based on the animal weight of the first day of dosing (day 1). Tumor volume and changes in body weight (%) were represented as the mean±standard error of the mean (SEM).

ovarian PDX OV1658 = assay: Ovarian PDX model OV1658, Compound 5 and carboplatin and/or paclitaxel; format: in vivo, mouse
Protocol: as §1, §2, §3, §4, §6, §7, §8, §9

[3] = test system: PTK2 high ovarian PDX OV1385; assay: PTK2 high ovarian PDX model OV1385, Compound 5 and carboplatin and/or paclitaxel; format: in vivo, mouse
Protocol: as §1, §2, §3, §4, §6, §7, §8, §9

NCI-H2228 tumor cells = assay: Cell viability WST (CCK-8) assay, combination of Compound 5 and Compound 34; format: cell-based; settings: Homo sapiens, 72 hours, single agent, read-out: Compound B IC50
Protocol: Cell plating: Anti-proliferative effects were detected by a CCK-8 (Cell Counting Kit-8, Shanghai life iLab, China) assay based on water soluble tetrazolium salt (WST). The cells were seeded in 96-well plates, and only 95 μL of complete medium was added to each negative control group. 95 μL of complete medium cell suspension was added to each well to be tested, and the cell density was (5-10)×10^4/hole. Dosing (protection from light): […] After 72 hours of action by using 6 different concentrations of Compound 34 with 3 fixed doses of Compound 5, the combination effect of Compound 5 an Compound 34 was tested. Reading: […] The plates were continuously incubated at 37 ° C. for 2-4 hours in a CO2 incubator. The OD values were measured using a microplate reader (SpectraMax Plus 384, Molecular Devices, LLC., US) under A450 nm. […] (O.D. of test well−O.D. of blank control well)/(O.D. of cell control well−O.D. of blank control well)×100%. IC50 values were calculated using Graphpad Prism 6.0 software for nonlinear regression data analysis method.

[4] = Compound 5 50 mg/kg orally once per day, carboplatin 30 mg/kg i.p. once per week, 29 days
[5] = Compound 5 50 mg/kg orally once per day, carboplatin 30 mg/kg i.p. once a week, paclitaxel 10 mg/kg i.v. once a week, 28 days
[6] = Compound 5 50 mg/kg orally once per day, carboplatin 30 mg/kg i.p. once a week, paclitaxel 10 mg/kg i.v. once a week, 19 days
[7] = Compound 5 50 mg/kg orally once per day, carboplatin 30 mg/kg i.p. once a week, paclitaxel 10 mg/kg i.v. once a week, 35 days

| Structure (SMILES) | RTV on Day 29 after administration (mean ± standard error) [1, 4] | T/C on Day 29 after administration (%) [1, 4] [%] | antitumor activity (conclusion in words) ([1]; mouse, in vivo) | RTV on Day 22 after administration (mean ± standard error) (ovarian PA-1 xenograft) | T/C on Day 22 after administration (%) (ovarian PA-1 xenograft) | RTV on Day 28 after administration (mean ± standard error) [2, 5] | T/C on Day 28 after administration (%) [2, 5] [%] | mRECIST ([2]; animals per class) | antitumor activity (conclusion in words) ([2]; mouse, in vivo) | RTV on Day 19 after administration (mean ± standard error) (ovarian PDX OV1658; [6]) | T/C on Day 19 after administration (%) (ovarian PDX OV1658; [6]) | mRECIST on Day 19 after administration (ovarian PDX OV1658; Day 19, animals per class) | mRECIST (ovarian PDX OV1658; best response, animals per class) | antitumor activity (conclusion in words) (ovarian PDX OV1658; mouse, in vivo) | RTV on Day 35 after administration (mean ± standard error) [3, 7] | T/C on Day 35 after administration (%) [3, 7] [%] | mRECIST on Day 35 after administration ([3]; Day 35, animals per class) | antitumor activity (conclusion in words) ([3]; mouse, in vivo) | IC50 (NCI-H2228 tumor cells) [nM] |
| --- | --- | --- | --- | --- | --- | --- | --- | --- | --- | --- | --- | --- | --- | --- | --- | --- | --- | --- | --- |
| N.N.O=C([O-])C1(C(=O)[O-])CCC1.[Pt+2] [Carboplatin, carboplatin] | 11.15 ± 6.55 | 127.72 | no antitumor activity | 15.1 ± 2.3 | 94.97 | 8.97 ± 1.24 | 47.76 | 2/2 PD | moderate antitumor activity | 9.34 ± 2.01 | 68.37 | 2/2 PD | 2/2 PD | minor antitumor activity | 2.08 ± 0.49 | 51.49 | 2/2 PD | moderate antitumor activity | – |
| Cc1ccc(C(=O)Nc2ccc(CN3CCN(C)CC3)c(C(F)(F)F)c2)cc1C#Cc1cnc2[nH]ncc2c1 [Compound 34] | – | – | – | – | – | – | – | – | – | – | – | – | – | – | – | – | – | – | 1680 |
